Columns and labels:
recombinant CHO cells = details: sodium butyrate added in fluidized bed bioreactor; cited from earlier work
[1] = system: CHO (Chinese Hamster Ovary) cell-derived cell line; assay: Average daily recombinant protein production using RaMP, Example 5; format: cell-based
Procedure: Samples of harvested media were taken from the daily harvest and frozen. At the end of the production run, the frozen daily samples were tested using an anti-IgG (recognizing only intact IgG) ELISA assay in order to determine the protein yields. FIG. 1 is a graphical representation of the average daily yield of recombinant protein from both traditional perfusion and RaMP methods.
(§1) Cells were seeded at 5×10^5 cells/ml and were allowed to grow in the bioreactor for 6 days before the first harvest of recombinant protein on day 7. Conditions for this growth period are similar to those described in Example 1 above. Cells were grown in RBM12.1 media with a perfusion rate of 1 to 1.5 v/day. 1 mM sodium butyrate (final concentration) was added to perfusion medium and was perfused into the bioreactor on day 8. […] 2 mM sodium butyrate (final concentration) was added to the perfusion media and was perfused into the bioreactor on day 11. Cell viability was monitored daily by pulling samples from the bioreactor and trypan blue live/dead staining. Over the production run, the cell density reached upwards of 4.5×10^7 cells/ml. Using the RaMP method, the cell viability remained above 85% viable cells even with the sustained concentration of 2 mM sodium butyrate in the media. The average daily recombinant protein production reached over 0.6 g/L/day.

[2] = system: CHO (Chinese Hamster Ovary) cell-derived cell line; assay: Average daily specific productivity: perfusion, fed-batch and RaMP; format: cell-based; details: for Average Daily Specific Productivity: 10 day production run
From the text: Average daily specific productivity was compared using traditional perfusion, fed-batch with sodium butyrate induction and RaMP processes. The same production cell line was used for all three methods. Culture conditions for all three methods were similar to those described in Example 1 above. Cells were inoculated at 5×10^5 cells/ml and were allowed to grow to the desired concentration before induction with sodium butyrate. Fed-batch culture was induced with sodium butyrate as a bolus addition. Fed-batch specific productivity calculations were normalized and averaged for new protein production per day. Average daily specific productivity was calculated using production yields from a 10 day production run. Maximal sodium butyrate concentration was 2 mM for both fed-batch and RaMP processes. Average daily yields using the RaMP method was approximately 6 times more than fed-batch or traditional perfusion methods.

[3] = system: CHO (Chinese Hamster Ovary) cell-derived cell line; assay: Cell viability with gradual NaB ramping in perfusion culture (summary experiment); format: cell-based
Procedure: In one experiment, 0.5 mM NaB (final concentration) was introduced into the bioreactor by perfusing RBM12.1 medium with 0.5 mM NaB into the bioreactor on day 7 of the production run. On day 10, the bioreactor was perfused with RBM 12.1 medium with 1.0 mM NaB. On day 13, the bioreactor was perfused with RBM12.1 medium with 1.5 mM NaB.

[4] = system: CHO (Chinese Hamster Ovary) cell-derived cell line; assay: Cell viability and cell density, Example 5 (RaMP); format: cell-based
Procedure: as §1

[5] = system: Chinese hamster ovary (CHO) cell line; assay: Effect of increasing sodium butyrate concentrations on cell viability in perfusion culture; format: cell-based
Procedure: Additional experiments using higher concentrations of sodium butyrate induction were also performed. The cells were seeded and grown similar to the conditions described above. On day 7, […] sodium butyrate was introduced into the perfusion medium. On day 10, the sodium butyrate concentration was increased to 1.0 mM. On day 12, the sodium butyrate concentration was increased to 2.0 mM. On day 14, the sodium butyrate concentration was increased to 4.0 mM and on day 17, the sodium butyrate concentration was increased to 8.0 mM. Throughout the experiment, cell viability was over 85% and the viable cell concentration reached over 4.8×10^7 cells/ml.

[6] = system: CHO (Chinese Hamster Ovary) cell-derived cell line; assay: Cell viability during production period, Example 4 (RaMP); format: cell-based; details: RaMP: 0.5 mM sodium butyrate day 10, 1.0 mM day 14; entire production period
Procedure: Cells were seeded at 5×10^5 cells/ml and were allowed to grow for 9 days in the bioreactor before induction with butyrate for the RaMP method. Conditions for this growth period are similar to those described in Example 1 above. On day 10, media containing 0.5 mM sodium butyrate was perfused into the bioreactor. On day 14, media containing 1.0 mM sodium butyrate was perfused into the bioreactor.
Cell viability was monitored daily throughout the production period. Over the entire production period, cell viability remained high and never dropped below 85% for both traditional perfusion and RaMP methods.

CCCC(=O)[O-].[Na+] [sodium butyrate]
cell growth and cell concentration (recombinant CHO cells): the cells stopped growing and cell concentration declined | average daily recombinant protein production ([1]; 1 mM then 2 mM sodium butyrate, reached): over 0.6 g/L/day | Average total production ([1]; sodium butyrate 1 mM, day 8 in culture): 102 mg/L/day | Average total production ([1]; sodium butyrate 1 mM, day 9 in culture): 159 mg/L/day | Average total production ([1]; sodium butyrate 1 mM, day 10 in culture): 343 mg/L/day | Average total production ([1]; sodium butyrate 2 mM, day 11 in culture): 381 mg/L/day | Average total production ([1]; sodium butyrate 2 mM, day 12 in culture): 332 mg/L/day | Average total production ([1]; sodium butyrate 2 mM, day 13 in culture): 590 mg/L/day | Average total production ([1]; sodium butyrate 2 mM, day 14 in culture): 498 mg/L/day | Average total production ([1]; sodium butyrate 2 mM, day 15 in culture): 577 mg/L/day | Average total production ([1]; sodium butyrate 2 mM, day 16 in culture): 549 mg/L/day | Average total production ([1]; sodium butyrate 2 mM, day 17 in culture): 526 mg/L/day | Average total production ([1]; sodium butyrate 2 mM, day 18 in culture): 684 mg/L/day | Average Daily Specific Productivity ([2]; Fed-batch, sodium butyrate bolus addition, maximal 2 mM): 0.10 g/L/day ± 0.03 | Average Daily Specific Productivity ([2]; RaMP, maximal sodium butyrate 2 mM): 0.64 g/L/day ± 0.07 | Average daily yields using RaMP relative to fed-batch or traditional perfusion methods ([2]; maximal sodium butyrate 2 mM): approximately 6 times | cell viability ([3]; 0.5 mM NaB day 7, 1.0 mM day 10, 1.5 mM day 13): did not decrease | cell viability ([3]; gradual ramping of sodium butyrate to desired maximal concentration, compared to bolus addition): over 85% | cell density ([4]; RaMP, 1 mM then 2 mM sodium butyrate, over the production run): > 4.5×10^7 cells/ml | cell viability ([4]; after 1 mM sodium butyrate perfused on day 8): ≥ 85% | cell viability ([4]; sustained concentration of 2 mM sodium butyrate in the media (from day 11)): above 85% | % viable cells ([5]; Na butyrate 0.5 mM, day 7): 97.3% | % viable cells ([5]; Na butyrate 0.5 mM, day 8): 97.8% | % viable cells ([5]; Na butyrate 0.5 mM, day 9): 97.8% | % viable cells ([5]; Na butyrate 1.0 mM, day 10): 97.8% | % viable cells ([5]; Na butyrate 1.0 mM, day 11): 96.6% | % viable cells ([5]; Na butyrate 2.0 mM, day 12): 97.2% | % viable cells ([5]; Na butyrate 2.0 mM, day 13): 95.9% | % viable cells ([5]; Na butyrate 4.0 mM, day 14): 97% | % viable cells ([5]; Na butyrate 4.0 mM, day 15): 96.7% | % viable cells ([5]; Na butyrate 4.0 mM, day 16): 94.2% | % viable cells ([5]; Na butyrate 8.0 mM, day 17): 94.7% | % viable cells ([5]; Na butyrate 8.0 mM, day 18): 93.3% | % viable cells ([5]; Na butyrate 8.0 mM, day 19): 91.5% | % viable cells ([5]; Na butyrate 8.0 mM, day 20): 88.1% | cell viability ([5]; sodium butyrate stepped 0.5 to 8.0 mM, day 7 to day 17, throughout the experiment): over 85% | viable cell concentration ([5]; sodium butyrate stepped 0.5 to 8.0 mM, reached): over 4.8×10^7 cells/ml | cell viability [6]: ≥ 85%

Reference: patent US20080206819A1, “Intensified Perfusion Production Method” (priority 2006, published 2008)
